Measured values published in paper PMC7557402, “Evaluation of Nucleoside Analogs as Antimicrobials Targeting Unique Enzymes in Borrelia burgdorferi” (Pathogens, 2020).

Assays:
Assay type in all cases: biochemical, Borrelia burgdorferi
Pfs [1] = target: T1, Pfs (Borreliella burgdorferi, UniProt O50162); assay: MTAN inhibition constants (competitive inhibition of MTA hydrolysis); conditions: MTA 100 µM, inhibitor 0 to 100 µM, read-out: Ki (inhibition constant)
Procedure: (§1) For the other compounds, inhibition constants (Ki’s) were determined as previously described, using an MTA concentration of 100 µM and varying the inhibitor concentration from 0 to 100 µM. The inhibited velocity (Vo’) and uninhibited velocity (Vo) values were determined, and the ratio of Vo’/Vo plotted as a function of inhibitor concentration. Ki values were calculated from these plots by fitting the data to the equation for competitive inhibition using GraphPad Prism:(2) Vo^′/Vo=Km+[S]/Km+[S]+(Km[I]/Ki)
(§2) The enzyme inhibition constant and delayed onset inhibition constant for dET-ImmA was previously reported.

MtnN [2] = target: T2, MtnN (Borreliella burgdorferi, UniProt O50860); assay: as above; conditions: MTA 100 µM, inhibitor 0 to 100 µM, read-out: Ki (inhibition constant)
T2 sequence (O50860 entry or part of it): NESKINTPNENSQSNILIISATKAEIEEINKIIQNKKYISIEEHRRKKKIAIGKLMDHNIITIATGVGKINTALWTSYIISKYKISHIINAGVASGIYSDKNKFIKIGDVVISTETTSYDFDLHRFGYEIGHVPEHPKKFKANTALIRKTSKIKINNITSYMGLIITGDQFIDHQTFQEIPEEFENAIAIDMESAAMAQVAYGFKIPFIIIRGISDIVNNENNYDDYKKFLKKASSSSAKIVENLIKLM
Procedure: as §1, §2

Pfs [3] = target: T1, Pfs; assay: MTAN spectrophotometric activity assay (specific activity, Km)
Procedure: (§3) Recombinant MTANs were expressed and purified as previously described. Briefly, overnight 10 mL cultures of recombinant E. coli BL21(DE3) pLysS cells containing engineered pET30a expression plasmids for Bgp, MtnN or Pfs were grown at 37 °C with shaking (150 rpm) in LB broth supplemented with 50 µg/mL kanamycin and 0.5% glucose. The culture was diluted 1:50 in fresh medium and incubated at 37 °C with shaking (150 rpm) until the absorbance (600 nm) reached 0.4–0.6. Protein expression was induced with the addition of isopropyl β-D-1-thiogalactopyranoside (IPTG) to a final concentration of 1 mM and continued overnight incubation with shaking at 30 °C. Cells were harvested by centrifugation (10,000× g/15 min), and the pellet was washed once with ice-cold lysis buffer (50 mM sodium phosphate, pH = 8.0, 300 mM NaCl, 10 mM imidazole, 2mM β mercaptoethanol). Harvested cell pellets were resuspended in 10 mL fresh lysis buffer and lysed by sonication on ice using a Misonix Sonicator 300 (power setting 7, pulse 30 s, 1 min cooling with total sonication for 2.5 min). The cell lysates were centrifuged at 10,000× g for 15 min at 4 °C to remove debris, and the lysate was further filtered through a […] syringe filter to obtain a clear extract. Recombinant N-terminal hexahistidine tagged proteins were purified from the lysate using HisPur™ affinity columns (Thermo Scientific) according to the manufacturer’s specifications, and specifically eluted with 250 mM imidazole containing buffer (pH = 7). Eluted materials were analyzed by SDS-PAGE and Coomassie blue staining and found to be >95% homogeneous. Enzyme concentrations were determined using UV scans on a Cary100 spectrophotometer (Agilent) to determine the absorbance at 280 nm and applying extinction coefficients (0.1%) of 0.594 (Bgp), 0.637 (MtnN), and 0.404 (Pfs). Enzyme stocks (1 mg/mL) were prepared in 20% glycerol and stored at −80 °C.
(§4) Enzyme specific activities were determined using previously reported optimal pH conditions (50 mM sodium phosphate, pH = 7, for Bgp, MtnN; 50 mM sodium phosphate-citrate, pH = 5, for Pfs) and a spectrophotometric activity assay that measures the decrease in UV absorbance at 275 nm that occurs when MTA is cleaved to 5-methylthioribose and adenine (ε275 = 1.6 mM^−1cm^−1). The extinction coefficients for cleavage of other nucleosides were experimentally validated and found to be the same for MSeA, FSBA, and IADO (ε275 = 1.6 mM^−1cm^−1). Due to the added UV absorbance imparted by the 5′ purine group found in PurTA, the enzyme reactions were followed spectrophotometrically at 260 nm using the experimentally determined extinction coefficient of ε260 = 5.6 mM^−1cm^−1. Enzyme specific activities for MTA were generally 1–2 U/mg (1 U = µmol MTA hydrolyzed/min). The enzyme specific activities for other nucleosides were determined and reported in U/mg and as the % max specific activity (relative to MTA at 100%).
(§5) Kinetic constants have been previously reported for MTA [18]. As MSeA was also an efficient substrate for the B. burgdorferi nucleosidases, kinetic constants were determined using the activity assay described above, varying the nucleoside concentrations from 1 to 20 µM, and fitting the data on substrate-velocity plots to the Michaelis–Menten equation using GraphPad Prism (version 6):(1) Vo=Vmax[S]/Km+[S]

MtnN [4] = target: T2, MtnN; assay: as above
Procedure: as §3, §4, §5

Bgp = Bgp (Borreliella burgdorferi, UniProt Q9F952); assay: as above
Sequence of Bgp (Q9F952 entry or part of it): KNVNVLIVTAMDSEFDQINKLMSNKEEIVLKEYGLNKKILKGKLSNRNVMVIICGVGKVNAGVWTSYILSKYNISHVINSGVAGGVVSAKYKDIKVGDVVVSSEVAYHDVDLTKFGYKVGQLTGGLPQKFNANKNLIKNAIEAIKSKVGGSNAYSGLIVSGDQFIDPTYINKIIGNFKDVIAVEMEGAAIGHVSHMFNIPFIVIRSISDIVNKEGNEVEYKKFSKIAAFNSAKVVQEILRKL
Procedure: as §3, §4, §5

[5] = pH 7, 1 U = 1 µmol MTA hydrolyzed per minute

T1 sequence (O50162 entry or part of it): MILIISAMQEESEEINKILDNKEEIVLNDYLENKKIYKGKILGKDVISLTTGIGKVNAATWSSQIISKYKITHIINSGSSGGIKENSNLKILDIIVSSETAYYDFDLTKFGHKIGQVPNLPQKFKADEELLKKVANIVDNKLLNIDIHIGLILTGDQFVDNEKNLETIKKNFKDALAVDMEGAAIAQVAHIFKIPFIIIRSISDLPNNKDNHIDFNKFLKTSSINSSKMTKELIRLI

Nc1ncnc2c1ncn2[C@@H]1O[C@H](CI)[C@@H](O)[C@H]1O [IADO, 5′-deoxy-5′-iodoadenosine] was tested, and the Ki (Pfs [1]) was 900 nM, the Ki (MtnN [2]) was 2470 nM and the “Specific Activity” value (Pfs [3]; pH 5, 1 U = 1 µmol MTA hydrolyzed per minute) was 0.11 U/mg. For the same compound, the “% Max Specific Activity” value (Pfs [3]; relative to MTA as a substrate) was 6%, the “Specific Activity” value (MtnN [4]; [5]) was 0.03 U/mg and the “% Max Specific Activity” value (MtnN [4]; relative to MTA as a substrate) was 3%. For the same compound, the “Specific Activity” value (Bgp; [5]) was 0.04 U/mg and the “% Max Specific Activity” value (Bgp; relative to MTA as a substrate) was 4%.
